Test results as given in patent US20240051970A1, “COMPOUNDS AND COMPOSITIONS FOR TREATING CONDITIONS ASSOCIATED WITH STING ACTIVITY” (IFM Due, Inc., priority 2020, published 2024).

Each compound was assayed against T1, hSTING (Homo sapiens, UniProt Q86WV6, G230A/H232R/R293Q/R71H) (assay: STING reporter assay (luciferase) in THP1-Dual KO-IFNAR2 cells activated with 2'3'cGAMP). Conditions: 15 μM 2'3'cGAMP, 24 h.
T1 construct: host or cells: THP1-Dual KO-IFNAR2 cells
Format: cell-based
Protocol: STING pathway activation by the compounds described herein was measured using THP1-Dual™ cells (KO-IFNAR2).
THP1-Dual™ KO-IFNAR2 Cells (obtained from invivogen) were maintained in RPMI, 10% FCS, 5 ml P/S, 2 mM L-glut, 10 mM Hepes, and 1 mM sodium pyruvate. Compounds were spotted in empty 384 well tissue culture plates (Greiner 781182) by Echo for a final concentration of 0.0017-100 μM. Cells were plated into the TC plates at 40 μL per well, 2×10E6 cells/mL. For activation with STING ligand, 2′3′cGAMP (MW 718.38, obtained from Invivogen), was prepared in Optimem media.
The following solutions were prepared for each 1×384 plate: • Solution A: 2 mL Optimem with one of the following stimuli: • 60 μL of 10 mM 2′3′cGAMP 4 150 μM stock • Solution B: 2 mL Optimem with 60 μL Lipofectamine 2000 4 Incubate 5 min at RT
2 mL of solution A and 2 ml Solution B was mixed and incubated for 20 min at room temperature (RT). 20 μL of transfection solution (A+B) was added on top of the plated cells, with a final 2′3′cGAMP concentration of 15 μM. The plates were then centrifuged immediately at 340 g for 1 minute, after which they were incubated at 37° C., 5% CO2, >98% humidity for 24 h. Luciferase reporter activity was then measured. EC50 values were calculated by using standard methods known in the art.
Luciferase reporter assay: 10 μL of supernatant from the assay was transferred to white 384-plate with flat bottom and squared wells. One pouch of QUANTI-Luc™ Plus was dissolved in 25 mL of water. 100 μL of QLC Stabilizer per 25 mL of QUANTI-Luc™ Plus solution was added. 50 μL of QUANTI-Luc™ Plus/QLC solution per well was then added. Luminescence was measured on a Platereader (e.g., Spectramax I3X (Molecular Devices GF3637001)).
Luciferase reporter activity was then measured. EC50 values were calculated by using standard methods known in the art.

T1 sequence (Q86WV6 whole entry R71H/G230A/H232R/R293Q): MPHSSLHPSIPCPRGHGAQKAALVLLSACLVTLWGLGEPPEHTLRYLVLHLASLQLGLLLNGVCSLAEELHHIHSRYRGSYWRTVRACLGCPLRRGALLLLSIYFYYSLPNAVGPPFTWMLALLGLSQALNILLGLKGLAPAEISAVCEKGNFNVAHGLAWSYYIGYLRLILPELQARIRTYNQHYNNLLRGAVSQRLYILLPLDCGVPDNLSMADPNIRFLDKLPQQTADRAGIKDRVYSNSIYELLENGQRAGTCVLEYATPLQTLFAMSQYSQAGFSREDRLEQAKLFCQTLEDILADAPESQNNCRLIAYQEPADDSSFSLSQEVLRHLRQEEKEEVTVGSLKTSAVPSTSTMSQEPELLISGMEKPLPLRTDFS

Row | Compound | EC50 [nM]
1 | Clc1cc(Nc2nc3cc(-c4ccc(N5CCCC5)nc4)ccc3[nH]2)cc2[nH]ccc12 [Compound 146, N-(4-chloro-1H-indol-6-yl)-5-[6-(pyrrolidin-1-yl)pyridin-3-yl]-1H-1,3-benzodiazol-2-amine] | 1000 to 5000
2 | CN1CCC(c2ccc3[nH]c(Nc4cc(Cl)c5cc[nH]c5c4)nc3c2)CC1 [Compound 160, N-(4-chloro-1H-indol-6-yl)-5-(1-methylpiperidin-4-yl)-1H-1,3-benzodiazol-2-amine] | 5000 to 100000
3 | OC1CCC(c2ccc3[nH]c(Nc4cc(Cl)c5cc[nH]c5c4)nc3c2)CC1 (centres unmarked) [Compound 139, 4-{2-[(4-chloro-1H-indol-6-yl)amino]-1H-1,3-benzodiazol-5-yl}cyclohexan-1-ol] | 1000 to 5000
4 | CCOC(=O)C1CCC(c2ccc3[nH]c(Nc4cc(Cl)c5cc[nH]c5c4)nc3c2)CC1 (centres unmarked) [Compound 138, ethyl 4-{2-[(4-chloro-1H-indol-6-yl)amino]-1H-1,3-benzodiazol-5-yl}cyclohexane-1-carboxylate] | 1000 to 5000
5 | CC1(C)CC(c2ccc3[nH]c(Nc4cc(Cl)c5cc[nH]c5c4)nc3c2)CC(C)(C)O1 [Compound 143, N-(4-chloro-1H-indol-6-yl)-5-(2,2,6,6-tetramethyloxan-4-yl)-1H-1,3-benzodiazol-2-amine] | 5000 to 100000
6 | Fc1cc(Nc2nc3cc(Cl)c(Cl)cc3[nH]2)cc2[nH]ccc12 [Compound 105, 5,6-dichloro-N-(4-fluoro-1H-indol-6-yl)-1H-benzo[d]imidazol-2-amine] | 200 to 1000
7 | Cn1c(Nc2ccc3cc[nH]c3c2)nc2cc(C(F)(F)F)ccc21 [Compound 121, N-(1H-indol-6-yl)-1-methyl-5-(trifluoromethyl)-1H-benzo[d]imidazol-2-amine] | 200 to 1000
8 | Clc1cc(Nc2nc3cc(-c4ccc(CN5CCOCC5)s4)ccc3[nH]2)cc2[nH]ccc12 [Compound 145, N-(4-chloro-1H-indol-6-yl)-5-{5-[(morpholin-4-yl)methyl]thiophen-2-yl}-1H-1,3-benzodiazol-2-amine] | 200 to 1000
9 | Clc1cc(Nc2nc3cc(-c4cnn(C5CCOCC5)c4)ccc3[nH]2)cc2[nH]ccc12 [Compound 159, N-(4-chloro-1H-indol-6-yl)-5-[1-(oxan-4-yl)-1H-pyrazol-4-yl]-1H-1,3-benzodiazol-2-amine] | 200 to 1000
10 | FC(F)(F)c1ccc2[nH]c(Nc3ccc4cc[nH]c4c3)nc2c1 [Compound 123, N-(1H-indol-6-yl)-5-(trifluoromethyl)-1H-benzo[d]imidazol-2-amine] | 200 to 1000
11 | FC(F)(F)Oc1ccc(-c2ccc3[nH]c(Nc4cc(Cl)c5cc[nH]c5c4)nc3c2)cc1 [Compound 170, N-(4-chloro-1H-indol-6-yl)-5-[4-(trifluoromethoxy)phenyl]-1H-1,3-benzodiazol-2-amine] | 200 to 1000
12 | CC(=O)N1CCC(c2ccc3[nH]c(Nc4cc(Cl)c5cc[nH]c5c4)nc3c2)CC1 [Compound 152, 1-(4-{2-[(4-chloro-1H-indol-6-yl)amino]-1H-1,3-benzodiazol-5-yl}piperidin-1-yl)ethan-1-one] | 1000 to 5000
13 | FC(F)(F)CN1CCC(c2ccc3[nH]c(Nc4cc(Cl)c5cc[nH]c5c4)nc3c2)CC1 [Compound 153, N-(4-chloro-1H-indol-6-yl)-5-[1-(2,2,2-trifluoroethyl)piperidin-4-yl]-1H-1,3-benzodiazol-2-amine] | 200 to 1000
14 | FC(F)(F)C1CCC(c2ccc3[nH]c(Nc4cc(Cl)c5cc[nH]c5c4)nc3c2)CC1 (centres unmarked) [Compound 142, N-(4-chloro-1H-indol-6-yl)-5-[4-(trifluoromethyl)cyclohexyl]-1H-1,3-benzodiazol-2-amine] | 1000 to 5000

Results, then the compound that gave them:

Row | EC50 [nM] | Compound
15 | 40 to 200 | Fc1c[nH]c2cc(Nc3nc4cc(C(F)(F)F)ccc4[nH]3)ccc12 [Compound 175, N-(3-fluoro-1H-indol-6-yl)-5-(trifluoromethyl)-1H-1,3-benzodiazol-2-amine]
16 | 200 to 1000 | Cn1c(Nc2cc(Cl)c3cc[nH]c3c2)nc2cc(Cl)c(Cl)cc21 [Compound 109, 5,6-dichloro-N-(4-chloro-1H-indol-6-yl)-1-methyl-1H-benzo[d]imidazol-2-amine]
17 | 200 to 1000 | CC(C)CCc1ccc2[nH]c(Nc3cc(Cl)c4cc[nH]c4c3)nc2c1 [Compound 165, N-(4-chloro-1H-indol-6-yl)-5-(3-methylbutyl)-1H-1,3-benzodiazol-2-amine]
18 | 200 to 1000 | Clc1cc(Nc2nc3cc(C4CCOC4)ccc3[nH]2)cc2[nH]ccc12 (centres unmarked) [Compound 154, N-(4-chloro-1H-indol-6-yl)-5-(oxolan-3-yl)-1H-1,3-benzodiazol-2-amine]
19 | 200 to 1000 | N#Cc1cncc(-c2ccc3[nH]c(Nc4cc(Cl)c5cc[nH]c5c4)nc3c2)c1 [Compound 167, 5-{2-[(4-chloro-1H-indol-6-yl)amino]-1H-1,3-benzodiazol-5-yl}pyridine-3-carbonitrile]
20 | 200 to 1000 | CC(C)(C)OC(=O)N1CCC(c2ccc3[nH]c(Nc4cc(Cl)c5cc[nH]c5c4)nc3c2)CC1 [Compound 162, tert-butyl 4-{2-[(4-chloro-1H-indol-6-yl)amino]-1H-1,3-benzodiazol-5-yl}piperidine-1-carboxylate]
21 | 200 to 1000 | Clc1cc(Nc2nc3cc(C4CCCOC4)ccc3[nH]2)cc2[nH]ccc12 (centres unmarked) [Compound 141, N-(4-chloro-1H-indol-6-yl)-5-(oxan-3-yl)-1H-1,3-benzodiazol-2-amine]
22 | 200 to 1000 | N#CC1(c2ccc(-c3ccc4[nH]c(Nc5cc(Cl)c6cc[nH]c6c5)nc4c3)cc2)CC1 [Compound 149, 1-(4-{2-[(4-chloro-1H-indol-6-yl)amino]-1H-1,3-benzodiazol-5-yl}phenyl)cyclopropane-1-carbonitrile]
23 | 40 to 200 | Clc1cc2nc(Nc3cc(Cl)c4cc[nH]c4c3)[nH]c2cc1Cl [Compound 110, 5,6-dichloro-N-(4-chloro-1H-indol-6-yl)-1H-benzo[d]imidazol-2-amine]
